SMILES strings stand for the structures.

This is an account of results in patent US7691624B2, “Cancer cell detecting devices” (Academia Sinica, priority 2003, dated 2010).

Data set [1] can be described thus: Fluorescence analysis in aqueous solution. Type of data set: physicochemical. To be noted: λex≈430 nm, no DNA. On the procedure: Compound 2 was mixed with eleven DNAs and subjected to fluorescence analysis at λex≈430 nm, using a Hitachi F4010 spectrofluorimeter with a 2 nm bandwidth in a 1-cm cell. Fluorescence analysis was also carried out for compound 4 in the presence of Hum24. […] Further, the fluorescence peaks for a complex of compound 2 and a DNA duplex and a complex of compound 2 and a DNA quadruplex were at ˜550 nm and ˜575 nm, respectively.

The subject of another data set is Hum24 quadruplex. Kind of data set: Temperature-dependent CD analysis. The data set is classed as binding, human. The source says: Eight DNA quadruplexes and their complexes with compound 2 were subjected to CD analysis. CD spectra were averaged 10 scans on a Jasco J-715 spectropolarimeter with a 2 nm bandwidth. The scan speed was 50 nm/min and the step resolution was 0.2 nm.
Further, Hum24 and its complexes with compounds 2, 4, 6, and 8 were subjected to temperature-dependent CD analysis.

Data set [2] has as its system AT, LD, GC, G10, LQ1, LQ2, LQ4, Tet12, Oxy12, Hum12, Apt, Oxy28, and Hum24. Kind of data set: Post-stained polyacrylamide gel electrophoresis. Type of data set: binding. The note with it: gels post-stained with 10 μM compound, 254 nm UV light. On the procedure: Compound 2 and its complexes with DNA quadruplexes were further studied by polyacrylamide gel eletrophoresis (PAGE). More specifically, compound 2/DNA quadruplexes described above were analyzed by PAGE in 20% native gels in 10 mM Tris-HCI and 150 mM NaCl (pH 7.5). Gel electrophoresis was carried out in an electric field of 100 V/cm at 4° C. for 15 hours. DNA concentrations were determined by absorbencies at 260 nm and were adjusted to about 10 μM per unit structure. After photographing with UV shadowing, gels were post-stained in a solution containing 10 μM of compound 2, 10 mM Tris-HCl, and 150 mM NaCl (pH 7.5) at room temperature for 10 seconds. The gels were then rinsed by distilled water and photographed under 254 nm UV light using a digital camera.
Gels were post-stained with compound 2 after electrophoresis of AT, LD, GC, G10, LQ1, LQ2, LQ4, Tet12, Oxy12, Hum12, Apt, Oxy28, and Hum24 was complete. […] In particular, most DNAs migrated in the gel in a single band, but Tet12 and LQ4 migrated in two bands.

The test system of another data set is LQ4. Kind of data set: Pre-stained gel electrophoresis selectivity and sensitivity assay. The data set is classed as binding. As for the experimental part: (§1) Pre-stained gels were used for selectivity assays. A 0.1 μM compound 2 solution was initially incubated with 10 μM of different DNA solutions for 10 minutes. Gel electrophoresis was then carried out in an electric field of 100 V/cm at 4° C. for 6 hours. All of the pre-stained gels were photographed under 254 nm UV light using a Bio-Rad imaging detector.
(§2) Gels pre-stained with compound 2 were used before running electrophoresis for AT, LD, GC, G10, LQ1, LQ2, LQ4, Tet12, Oxy12, Hum12, Apt, Oxy28, and Hum24. […] This third band is ascribed to be a linear tetramer of Tet12.
(§3) To study the sensitivity of DNA detection using electrophoresis described above, a solution containing 0.1 μM of compound 2 was incubated with solutions containing 2.5 to 0.005 μM of Hum24. The mixtures were then subjected to electrophoresis.

The next data set concerns Oxy28. Described as above. Type of data set: binding. As for the experimental part:
as §1, §2, §3

In another data set the test system is Tet12. Described as above. Type of data set: binding. On the procedure:
as §1, §2, §3

Data set [3] concerns tested cancer cells (CL1-1, H1299, hTERT-BJ, Ca9-22, HeLa, KJ-1). Kind of data set: Cancer cell diagnosis by wide-field fluorescence microscopy. Type of data set: cell-based, human. To be noted: each type of tested cancer cells; 0.1 μM, 3-6 hours. As for the experimental part: A wide-field fluorescence microscopy was custom made for diagnosing cancer cells. The microscopy consists of an Ar^+ laser (Coherent Inc. Santa Clara, Calif.) as the light source, a sensitive cooled charged-coupled device (CCD) camera (DV465-UV, Andor Technology, South Windsor, Conn.) for imaging, and two avalanche photodiodes (APDs) for transient photoluminescence measurement. Excitation and imaging were conducted by an oil immersion microscope objective with a numerical aperture of 1.3. A dichroism mirror (Omega) was used to direct the fluorescence into the CCD camera. A holographic notch filter (Oriel) was used to block the backscattered laser light. Images of 250×250 pixels were recorded at a high speed. The imaged area was 50×50 μm^2 and the spatial resolution was about 2 pixels.
The following cells were tested: CL1-1 human lung cancer cells, H1299 lung cancer cells, hTERT-BJ lung cancer cells, Ca9-22 oral cancer cells, HeLa cervical cancer cells, KJ-1 nasopharyngeal cancer cells, HaCaT keratinocyte cells, Detroit-551 skin normal cells, IMR-90 lung normal cells, and BJ-1 lung fibroblast cells. Specifically, cells were incubated with 0.1 μM of compound 2 in a culture medium for 3-6 hours. The non-fixed cells were washed three times with phosphate-buffered saline and then studied under the wide-field fluorescence microscope.

The subject of another data set is CL1-0 cancer cells. Kind of data set: Stained cells spread onto cover slip, fluorescent cells counted. Type of data set: cell-based. On the procedure:
(§4) Further, the role of the ratio of the cells stained by Compound 2/AO in cancer diagnosis was studied. Specifically, CL1-0 cancer cells, NIH3T3 normal cells, and their 1:10 mixture were respectively stained with 0.02 μM AO and 1.5 μM Compound 2 for 5 minutes in eppendorfs. Each sample was then taken from the eppendorf and spread onto a cover slip. Fluorescence emissions were recorded by a color camera upon an LED illumination. […] A statistical histogram of the ratio of the cell stained with Compound 2/AO to the ratio of the CL1-0 cells to the sum of NIH3T3 and CL1-0 cells was plotted. Each spot on the histogram represented an average of 5-10 measurements from a single sample.

Data set [4] concerns NIH3T3 normal cells. The data set is described as above. The data set is classed as cell-based. The note with it: 1.5 μM Compound 2, 5 minutes, LED. On the procedure:
as §4

Data set [5] deals with mixture of NIH3T3 normal cells and CL1-0 cancer cells with cell ratio of 10:1. Described as above. The data set is classed as cell-based. The note with it: 1.5 μM Compound 2, 5 minutes, LED. As for the experimental part: as §4
The test system of data set [6] is NIH3T3 normal cells. Put plainly: Cancer cell diagnosis in a tube. Type of data set: cell-based. The note with it: NIH3T3 normal cells alone. The source says:
(§5) NIH3T3 normal cells and a mixture of NIH3T3 normal cells and CL1-0 cancer cells with a cell ratio of 100:1 were respectively stained with Compound 2 and allowed to flow through a tube. The fluorescence emission upon excitation was monitored. […] In other words, this method can be used for early detection of cancer cells when cancer cells have a low concentration in a sample. For example, this method can be used to identify patients at risk of developing cancer, who should consider further examination by a physician.

Data set [7] concerns mixture of NIH3T3 normal cells and CL1-0 cancer cells with a cell ratio of 100:1. Kind of data set: Cancer cell diagnosis in a tube. The data set is classed as cell-based. To be noted: NIH3T3:CL1-0 100:1.
Source text: as §5

The mark [8] stands for this setting: 0.1 μM compound solution, electrophoresis.
The mark [9] stands for this setting: 0.1 μM compound, 10 μM DNA, 254 nm UV light.

Regarding `C[n+]1ccc(C=Cc2ccc3[nH]c4ccc(C=Cc5cc[n+](C)cc5)cc4c3c2)cc1.[I-].[I-]` [Compound 2, 3,6-bis-(2-(1-methylpyridinium-4-yl)-vinyl)-9H-carbazole diiodide], in data set [1], the “fluorescence in an aqueous solution” value is “weak”. Besides, in the data set on Hum24 quadruplex, the “melting temperature of Hum24 quadruplex in the presence of compound” value is recorded as “increased”. Moreover, the “fluorescence bands in post-stained gels” value in data set [2] is given as “most DNAs exhibited fluorescence bands”. In addition, the “concentration of LQ4 quadruplex detected” value in the data set with LQ4 (setting [8]) was found to be 0.1 µM. For the same compound, the “fluorescence band in pre-stained gel” value is reported as “exhibited fluorescence bands” in the data set on LQ4 (setting [9]), “exhibited fluorescence bands” with Oxy28 (setting [9]) and “only exhibited a third fluorescence band” in the data set with Tet12 (setting [9]). In the data set on Oxy28 (setting [8]), the “concentration of Oxy28 quadruplex detected” value was found to be 0.1 µM. For the same compound, in the data set on Tet12 (setting [8]), the “concentration of Tet12 quadruplex in which a small amount of linear tetramer is detected” value is 0.25 µM. Further, the “percentage of cells exhibiting bright fluorescence in the nucleus” value in [3] is on record as “more than 70%”. The “number of stained cells showing fluorescence” value in the data set with CL1-0 cancer cells (1.5 μM Compound 2, 5 minutes, cover slip, LED) is given as around 22; in the data set with NIH3T3 normal cells [4] it was 4; in data set [5], 7. The “fluorescence brightness in cancer cells versus normal cells” value in the data set with CL1-0 cancer cells (1.5 μM, 5 minutes, CL1-0 versus NIH3T3, images) was “brighter fluorescence of Compound 2 in cancer cells than in normal cells”. Further, the results for the “fluorescence observed from stained cells flowing through a tube” value (in the data set on NIH3T3 normal cells [6]; in data set [7]) were “only weak fluorescence” and “bright fluorescence”, respectively.
